# Laboratory results as given in patent US8587857B2, “Electro-wetting display device and non-polar color solution thereof” (Industrial Technology Research Institute, priority 2010, dated 2013).
# Assay: solubility of dye in dodecane non-polar solvent, with or without trimethylbenzene (TMB) improvement agent
# Format: physicochemical
# Description: For example, when a red dye (for example, the C.I. solvent red 164) is dissolved in a dodecane non-polar solvent, a solubility thereof is about 4 wt %.
# For another example, when a blue dye (for example, the C.I. solvent blue 98) is dissolved in the dodecane non-polar solvent, a solubility thereof is about 8 wt %.
substance,measurement,setting,value
C.I. solvent blue 98,solubility,dye dissolved in dodecane non-polar solvent added with trimethylbenzene (TMB) improvement agent,21.5 wt %
same,solubility,"dye dissolved in dodecane non-polar solvent, no improvement agent",about 8 wt %
